Patent US20250325534A1, “MICROBIOCIDAL TETRAHYDROISOQUINOLINE DERIVATIVES” (SYNGENTA CROP PROTECTION AG, priority 2021, published 2025)

Experiments:
Type in all cases: cell-based
[1] = test system: Monographella nivalis; test: Monographella nivalis (Microdochium nivale) / liquid culture (foot rot cereals); conditions: 96 h, photometrically 4-5 days after application, read-out: control of Monographella nivalis
Experimental: (§1) Example B10: Monographella nivalis (Microdochium nivale)/Liquid Culture (Foot Rot Cereals) Conidia of the fungus from cryogenic storage are directly mixed into a nutrient broth (potato dextrose broth). After placing a DMSO solution of test compound into a microtiter plate (96-well format), the nutrient broth containing the fungal spores is added. The test plates are incubated at 24° C. and the inhibition of growth is determined photometrically 4-5 days after application.

[2] = test system: Mycosphaerella arachidis; test: Mycosphaerella arachidis (Cercospora arachidicola) / liquid culture (early leaf spot); conditions: 96 h, photometrically 4-5 days after application, read-out: control of Mycosphaerella arachidis
Experimental: as §1, with “B11: Mycosphaerella arachidis (Cercospora arachidicola)/Liquid” for “B10: Monographella nivalis (Microdochium nivale)/Liquid”, “(Early Leaf Spot)” for “(Foot Rot Cereals)”

[3] = test system: Mycosphaerella graminicola; test: Mycosphaerella graminicola (Septoria tritici) / liquid culture (Septoria blotch); conditions: Zymoseptoria tritici, 96 h, photometrically 4-5 days after application, read-out: control of Mycosphaerella graminicola
Experimental: as §1, with “B19: Mycosphaerella graminicola (Septoria tritici)/Liquid” for “B10: Monographella nivalis (Microdochium nivale)/Liquid”, “(Septoria Blotch)” for “(Foot Rot Cereals)”

Compound: Cc1nn(C)c(C)c1C1CN(C(=O)c2cc(-c3ccc(Cl)cc3F)on2)Cc2ccccc21 (centres unmarked) [Compound P-125, [5-(4-chloro-2-fluoro-phenyl)isoxazol-3-yl]-[4-(1,3,5-trimethylpyrazol-4-yl)-3,4-dihydro-1H-isoquinolin-2-yl]methanone]
- inhibition of growth at 20 ppm [1]: ≥ 80%
- inhibition of growth at 20 ppm [2]: ≥ 80%
- inhibition of growth at 20 ppm [3]: ≥ 80%

Compound: CC(=O)C1c2ccccc2C(c2cnn(C)c2)CN1C(=O)c1cc(-c2ccc(F)cc2F)on1 (centres unmarked) [Compound P-17, 1-[2-[5-(2,4-difluorophenyl)isoxazole-3-carbonyl]-4-(1-methylpyrazol-4-yl)-3,4-dihydro-1H-isoquinolin-1-yl]ethanone]
- inhibition of growth at 20 ppm [1]: ≥ 80%
- inhibition of growth at 20 ppm [3]: ≥ 80%

Compound: CCC1c2ccccc2C(c2cnn(C)c2)CN1C(=O)c1cc(-c2ccc(F)cc2F)on1 (centres unmarked) [Compound P-36, [5-(2,4-difluorophenyl)isoxazol-3-yl]-[1-ethyl-4-(1-methylpyrazol-4-yl)-3,4-dihydro-1H-isoquinolin-2-yl]methanone]
- inhibition of growth at 20 ppm [1]: ≥ 80%
- inhibition of growth at 20 ppm [3]: ≥ 80%

Compound: Cn1cc(C2CN(C(=O)c3ncc(-c4ccccc4)s3)Cc3ccccc32)cn1 (centres unmarked) [Compound P-156, [4-(1-methylpyrazol-4-yl)-3,4-dihydro-1H-isoquinolin-2-yl]-(5-phenylthiazol-2-yl)methanone]
- inhibition of growth at 20 ppm [1]: ≥ 80%
- inhibition of growth at 20 ppm [3]: ≥ 80%

Compound: CC1c2ccc(OC(F)F)cc2C(C)(c2cnn(C)c2)CN1C(=O)c1cc(-c2ccc(F)cc2F)on1 (centres unmarked) [Compound P-30, [6-(difluoromethoxy)-1,4-dimethyl-4-(1-methylpyrazol-4-yl)-1,3-dihydroisoquinolin-2-yl]-[5-(2,4-difluorophenyl)isoxazol-3-yl]methanone]
- inhibition of growth at 20 ppm [1]: ≥ 80%
- inhibition of growth at 20 ppm [2]: ≥ 80%
- inhibition of growth at 20 ppm [3]: ≥ 80%

Compound: Cn1cc(C2CN(C(=O)c3cc(-c4ccc(F)cc4)no3)Cc3ccccc32)cn1 (centres unmarked) [Compound P-160, [3-(4-fluorophenyl)isoxazol-5-yl]-[4-(1-methylpyrazol-4-yl)-3,4-dihydro-1H-isoquinolin-2-yl]methanone]
- inhibition of growth at 20 ppm [1]: ≥ 80%
- inhibition of growth at 20 ppm [3]: ≥ 80%

Compound: Cn1cc(C2CN(C(=O)c3cc(-c4ccccc4Cl)on3)Cc3ccccc32)cn1 (centres unmarked) [Compound P-197, [5-(2-chlorophenyl)isoxazol-3-yl]-[4-(1-methylpyrazol-4-yl)-3,4-dihydro-1H-isoquinolin-2-yl]methanone]
- inhibition of growth at 20 ppm [1]: ≥ 80%
- inhibition of growth at 20 ppm [3]: ≥ 80%

Compound: Cc1ccc2c(c1)C(c1cnn(C)c1)CN(C(=O)c1cc(-c3ccccc3)on1)C2 (centres unmarked) [Compound P-137, [6-methyl-4-(1-methylpyrazol-4-yl)-3,4-dihydro-1H-isoquinolin-2-yl]-(5-phenylisoxazol-3-yl)methanone]
- inhibition of growth at 20 ppm [2]: ≥ 80%
- inhibition of growth at 20 ppm [3]: ≥ 80%

Compound: CC(C)[C@@]1(c2cnn(C)c2)CN(C(=O)c2cc(-c3ccc(F)cc3F)on2)[C@@H](C)c2ccccc21 [Compound P-239, [5-(2,4-difluorophenyl)isoxazol-3-yl]-[(1S,4R)-4-isopropyl-1-methyl-4-(1-methylpyrazol-4-yl)-1,3-dihydroisoquinolin-2-yl]methanone]
- inhibition of growth at 20 ppm [2]: ≥ 80%
- inhibition of growth at 20 ppm [3]: ≥ 80%

Compound: CCC1(c2cnn(C)c2)CN(C(=O)c2cc(-c3ccc(F)cc3F)on2)Cc2ccccc21 (centres unmarked) [Compound P-248, [5-(2,4-difluorophenyl)isoxazol-3-yl]-[4-ethyl-4-(1-methylpyrazol-4-yl)-1,3-dihydroisoquinolin-2-yl]methanone]
- inhibition of growth at 20 ppm [1]: ≥ 80%

Compound: Cn1cc(C2CN(C(=O)c3cc(-c4ccc(F)c(F)c4)on3)Cc3ccccc32)cn1 (centres unmarked) [Compound P-172, [5-(3,4-difluorophenyl)isoxazol-3-yl]-[4-(1-methylpyrazol-4-yl)-3,4-dihydro-1H-isoquinolin-2-yl]methanone]
- inhibition of growth at 20 ppm [2]: ≥ 80%
- inhibition of growth at 20 ppm [3]: ≥ 80%

Compound: CC1c2ccc(O)cc2C(C)(c2cnn(C)c2)CN1C(=O)c1cc(-c2ccc(F)cc2F)on1 (centres unmarked) [Compound P-35, [5-(2,4-difluorophenyl)isoxazol-3-yl]-[6-hydroxy-1,4-dimethyl-4-(1-methylpyrazol-4-yl)-1,3-dihydroisoquinolin-2-yl]methanone]
- inhibition of growth at 20 ppm [2]: ≥ 80%
- inhibition of growth at 20 ppm [3]: ≥ 80%

Compound: Cn1cc(C2CN(C(=O)c3cnc(-c4ccccc4)s3)Cc3ccccc32)cn1 (centres unmarked) [Compound P-164, [4-(1-methylpyrazol-4-yl)-3,4-dihydro-1H-isoquinolin-2-yl]-(2-phenylthiazol-5-yl)methanone]
- inhibition of growth at 20 ppm [1]: ≥ 80%
- inhibition of growth at 20 ppm [3]: ≥ 80%

Compound: CC(C)[C@]1(c2cnn(C)c2)CN(C(=O)c2cc(-c3ccc(F)cc3F)on2)[C@@H](C)c2ccccc21 [Compound P-241, [5-(2,4-difluorophenyl)isoxazol-3-yl]-[(1S,4S)-4-isopropyl-1-methyl-4-(1-methylpyrazol-4-yl)-1,3-dihydroisoquinolin-2-yl]methanone]
- inhibition of growth at 20 ppm [2]: ≥ 80%
- inhibition of growth at 20 ppm [3]: ≥ 80%

Compound: Cn1cc(C2CN(C(=O)c3cc(C4CCCCC4)on3)Cc3ccccc32)cn1 (centres unmarked) [Compound P-177, (5-cyclohexylisoxazol-3-yl)-[4-(1-methylpyrazol-4-yl)-3,4-dihydro-1H-isoquinolin-2-yl]methanone]
- inhibition of growth at 20 ppm [1]: ≥ 80%
- inhibition of growth at 20 ppm [3]: ≥ 80%

Compound: CC1c2ccc(OCC(F)F)cc2C(C)(c2cnn(C)c2)CN1C(=O)c1cc(-c2ccccc2)on1 (centres unmarked) [Compound P-26, [6-(2,2-difluoroethoxy)-1,4-dimethyl-4-(1-methylpyrazol-4-yl)-1,3-dihydroisoquinolin-2-yl]-(5-phenylisoxazol-3-yl)methanone]
- inhibition of growth at 20 ppm [2]: ≥ 80%
- inhibition of growth at 20 ppm [3]: ≥ 80%

Compound: Cc1nn(C)c(C)c1C1CN(C(=O)c2cc(-c3ccc(F)cc3F)on2)Cc2cccc(F)c21 (centres unmarked) [Compound P-123, [5-(2,4-difluorophenyl)isoxazol-3-yl]-[5-fluoro-4-(1,3,5-trimethylpyrazol-4-yl)-3,4-dihydro-1H-isoquinolin-2-yl]methanone]
- inhibition of growth at 20 ppm [2]: ≥ 80%
- inhibition of growth at 20 ppm [3]: ≥ 80%

Compound: Cc1c(C2CN(C(=O)c3nnc(C4CC4)s3)Cc3ccccc32)cnn1C (centres unmarked) [Compound P-233, (5-cyclopropyl-1,3,4-thiadiazol-2-yl)-[4-(1,5-dimethylpyrazol-4-yl)-3,4-dihydro-1H-isoquinolin-2-yl]methanone]
- inhibition of growth at 20 ppm [3]: ≥ 80%

Compound: CC1c2ccc(OC(F)F)cc2C(C)(c2cnn(C)c2)CN1C(=O)c1cc(-c2ccccc2)on1 (centres unmarked) [Compound P-28, [6-(difluoromethoxy)-1,4-dimethyl-4-(1-methylpyrazol-4-yl)-1,3-dihydroisoquinolin-2-yl]-(5-phenylisoxazol-3-yl)methanone]
- inhibition of growth at 20 ppm [3]: ≥ 80%

Compound: CC1c2ccccc2C(c2cnn(C)c2)(C(C)C)CN1C(=O)c1cc(-c2ccc(F)cc2F)on1 (centres unmarked) [Compound P-220, [5-(2,4-difluorophenyl)isoxazol-3-yl]-[4-isopropyl-1-methyl-4-(1-methylpyrazol-4-yl)-1,3-dihydroisoquinolin-2-yl]methanone]
- inhibition of growth at 20 ppm [2]: ≥ 80%
- inhibition of growth at 20 ppm [3]: ≥ 80%

Compound: CC(C)C1(c2cnn(C)c2)CN(C(=O)c2cc(-c3ccc(F)cc3F)on2)Cc2ccccc21 (centres unmarked) [Compound P-246, [5-(2,4-difluorophenyl)isoxazol-3-yl]-[4-isopropyl-4-(1-methylpyrazol-4-yl)-1,3-dihydroisoquinolin-2-yl]methanone]
- inhibition of growth at 20 ppm [1]: ≥ 80%

Compound: COc1ccc(-c2cc(C(=O)N3Cc4ccccc4C(c4cnn(C)c4)C3)no2)c(F)c1 (centres unmarked) [Compound P-74, [5-(2-fluoro-4-methoxy-phenyl)isoxazol-3-yl]-[4-(1-methylpyrazol-4-yl)-3,4-dihydro-1H-isoquinolin-2-yl]methanone]
- inhibition of growth at 20 ppm [1]: ≥ 80%

Compound: Cc1c(C2CN(C(=O)c3cc(C4CCCC4)on3)Cc3ccccc32)cnn1C (centres unmarked) [Compound P-235, (5-cyclopentylisoxazol-3-yl)-[4-(1,5-dimethylpyrazol-4-yl)-3,4-dihydro-1H-isoquinolin-2-yl]methanone]
- inhibition of growth at 20 ppm [3]: ≥ 80%

Compound: CCC1c2ccccc2C(c2cnn(C)c2)CN1C(=O)c1cc(-c2ccccc2)on1 (centres unmarked) [Compound P-37, [1-ethyl-4-(1-methylpyrazol-4-yl)-3,4-dihydro-1H-isoquinolin-2-yl]-(5-phenylisoxazol-3-yl)methanone]
- inhibition of growth at 20 ppm [3]: ≥ 80%

Compound: Cn1cc(C2CN(C(=O)c3cc(C4CCCC4)on3)Cc3ccccc32)cn1 (centres unmarked) [Compound P-176, (5-cyclopentylisoxazol-3-yl)-[4-(1-methylpyrazol-4-yl)-3,4-dihydro-1H-isoquinolin-2-yl]methanone]
- inhibition of growth at 20 ppm [2]: ≥ 80%
- inhibition of growth at 20 ppm [3]: ≥ 80%

Compound: Cc1cccc2c1CN(C(=O)c1cc(-c3ccc(F)cc3F)on1)CC2c1c(C)nn(C)c1C (centres unmarked) [Compound P-114, [5-(2,4-difluorophenyl)isoxazol-3-yl]-[8-methyl-4-(1,3,5-trimethylpyrazol-4-yl)-3,4-dihydro-1H-isoquinolin-2-yl]methanone]
- inhibition of growth at 20 ppm [2]: ≥ 80%
- inhibition of growth at 20 ppm [3]: ≥ 80%
